Reference: patent US10040759B2, “Substituted azetidinyl compounds as GlyT1 inhibitors” (DART NEUROSCIENCE (CAYMAN) LTD., priority 2014, dated 2018)

target: T1, GlyT1 (Homo sapiens, UniProt P48067); experiment: Glycine Transporter 1 (GlyT1) uptake assay, scintillation proximity assay of [14C]-glycine uptake; assay type: cell-based; settings: [14C]-glycine uptake; read-out: GlyT1 (pIC50) (converted)
T1 construct: expressed in transfected cells
T1 sequence (P48067 1-706): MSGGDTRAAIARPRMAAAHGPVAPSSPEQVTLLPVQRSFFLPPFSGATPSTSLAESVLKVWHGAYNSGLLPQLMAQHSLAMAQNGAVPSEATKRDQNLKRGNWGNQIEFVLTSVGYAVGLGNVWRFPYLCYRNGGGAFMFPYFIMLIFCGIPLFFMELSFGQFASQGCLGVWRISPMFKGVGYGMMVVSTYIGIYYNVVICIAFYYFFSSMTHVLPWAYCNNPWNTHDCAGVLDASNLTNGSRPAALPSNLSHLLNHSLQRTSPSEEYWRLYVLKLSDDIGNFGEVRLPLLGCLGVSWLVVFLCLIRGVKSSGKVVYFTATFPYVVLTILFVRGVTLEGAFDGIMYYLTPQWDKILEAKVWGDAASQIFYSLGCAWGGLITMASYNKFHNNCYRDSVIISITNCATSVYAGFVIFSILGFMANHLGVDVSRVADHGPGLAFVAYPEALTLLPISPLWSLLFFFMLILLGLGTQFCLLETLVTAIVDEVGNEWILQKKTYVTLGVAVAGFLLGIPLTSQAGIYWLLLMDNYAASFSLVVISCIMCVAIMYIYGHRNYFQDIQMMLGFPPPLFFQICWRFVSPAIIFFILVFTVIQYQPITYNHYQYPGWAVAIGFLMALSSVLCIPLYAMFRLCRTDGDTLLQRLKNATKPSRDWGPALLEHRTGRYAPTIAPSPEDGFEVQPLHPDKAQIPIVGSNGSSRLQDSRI
Procedure, shortened: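 IC50 values were derived by four-parameter logistic fitting of counts. The 2× compound solutions were made by 1:100 dilution into HBSS of DMSO serial dilutions.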

Row | IC50 [nM] | SMILES
1 | 100 to 1000 | COc1c(S(C)(=O)=O)ccc(O[C@@H](C)C(F)(F)F)c1C(=O)N1CC(c2ccc(C(F)F)cc2F)C1 [Example 143, 3-[4-(Difluoromethyl)-2-fluorophenyl]-1-(3-methanesulfonyl-2-methoxy-6-{[(2S)-1,1,1-trifluoropropan-2-yl]oxy}benzoyl)azetidine]
2 | 1000 to 10000 | COc1cc(C2CN(C(=O)c3c(O[C@@H](C)C(F)(F)F)ccc(S(C)(=O)=O)c3OC)C2)ccc1C(F)(F)F [Example 144, 1-(3-Methanesulfonyl-2-methoxy-6-{[(2S)-1,1,1-trifluoropropan-2-yl]oxy}benzoyl)-3-[3-methoxy-4-(trifluoromethyl)phenyl]azetidine]
3 | 100 to 1000 | COc1c(S(C)(=O)=O)ccc(O[C@@H](C)C(F)(F)F)c1C(=O)N1CC(c2ccc(F)cc2Cl)C1 [Example 145, 3-(2-Chloro-4-fluorophenyl)-1-(3-methanesulfonyl-2-methoxy-6-{[(2S)-1,1,1-trifluoropropan-2-yl]oxy}benzoyl)azetidine]
4 | < 100 | COc1c(S(C)(=O)=O)ccc(O[C@@H](C)C(F)(F)F)c1C(=O)N1CC(c2ccc(C(F)(F)F)cc2Cl)C1 [Example 146, 3-[2-Chloro-4-(trifluoromethyl)phenyl]-1-(3-methanesulfonyl-2-methoxy-6-{[(2S)-1,1,1-trifluoropropan-2-yl]oxy}benzoyl)azetidine]
5 | < 100 | COc1c(S(C)(=O)=O)ccc(O[C@@H](C)C(F)(F)F)c1C(=O)N1CC(c2ccc(C(F)F)cc2Cl)C1 [Example 147, 3-[2-Chloro-4-(difluoromethyl)phenyl]-1-(3-methanesulfonyl-2-methoxy-6-{[(2S)-1,1,1-trifluoropropan-2-yl]oxy}benzoyl)azetidine]
6 | < 100 | COc1c(S(C)(=O)=O)ccc(O[C@@H](C)C(F)(F)F)c1C(=O)N1CC(c2ccc([N+](=O)[O-])cc2)C1 [Example 148, 1-(3-Methanesulfonyl-2-methoxy-6-{[(2S)-1,1,1-trifluoropropan-2-yl]oxy}benzoyl)-3-(4-nitrophenyl)azetidine]
7 | < 100 | COc1c(S(C)(=O)=O)ccc(O[C@@H](C)C(F)(F)F)c1C(=O)N1CC(c2cc(F)c(F)c(F)c2)C1 [Example 150, 1-(3-Methanesulfonyl-2-methoxy-6-{[(2S)-1,1,1-trifluoropropan-2-yl]oxy}benzoyl)-3-(3,4,5-trifluorophenyl)azetidine]
8 | < 100 | COc1c(S(C)(=O)=O)ccc(O[C@@H](C)C(F)(F)F)c1C(=O)N1CC(c2cc(F)c(F)cc2F)C1 [Example 154, 1-(3-Methanesulfonyl-2-methoxy-6-{[(2S)-1,1,1-trifluoropropan-2-yl]oxy}benzoyl)-3-(2,4,5-trifluorophenyl)azetidine]
9 | < 100 | COc1c(S(C)(=O)=O)ccc(O[C@@H](C)C(F)(F)F)c1C(=O)N1CC(c2ccc(F)c(F)c2F)C1 [Example 155, 1-(3-Methanesulfonyl-2-methoxy-6-{[(2S)-1,1,1-trifluoropropan-2-yl]oxy}benzoyl)-3-(2,3,4-trifluorophenyl)azetidine]
10 | < 100 | COc1c(S(C)(=O)=O)ccc(O[C@@H](C)C(F)(F)F)c1C(=O)N1CC(c2cc(F)cc(F)c2F)C1 [Example 156, 1-(3-Methanesulfonyl-2-methoxy-6-{[(2S)-1,1,1-trifluoropropan-2-yl]oxy}benzoyl)-3-(2,3,5-trifluorophenyl)azetidine]
11 | < 100 | COc1c(S(C)(=O)=O)ccc(O[C@@H](C)C(F)(F)F)c1C(=O)N1CC(c2cccc(F)c2F)C1 [Example 157, 3-(2,3-Difluorophenyl)-1-(3-methanesulfonyl-2-methoxy-6-{[(2S)-1,1,1-trifluoropropan-2-yl]oxy}benzoyl)azetidine]

The next lines start with the compound.

Row | SMILES | IC50 [nM]
12 | COc1c(S(C)(=O)=O)ccc(O[C@H](C)C(F)(F)F)c1C(=O)N1CC(Cc2ccc(C(F)(F)F)cc2)C1 [Example 149, 1-(3-Methanesulfonyl-2-methoxy-6-{[(2R)-1,1,1-trifluoropropan-2-yl]oxy}benzoyl)-3-{[4-(trifluoromethyl)phenyl]methyl}azetidine] | < 100
13 | COc1c(C#N)ccc(C2CC(F)(F)C2)c1C(=O)N1CC(c2ccc(C(F)(F)F)cn2)C1 [Example 151, 4-(3,3-Difluorocyclobutyl)-2-methoxy-3-{3-[5-(trifluoromethyl)pyridin-2-yl]azetidine-1-carbonyl}benzonitrile] | 100 to 1000
14 | COc1c(C#N)ccc(C2CC(F)(F)C2)c1C(=O)N1CC(c2ncc(C(F)(F)F)cc2Cl)C1 [Example 152, 3-{3-[3-Chloro-5-(trifluoromethyl)pyridin-2-yl]azetidine-1-carbonyl}-4-(3,3-difluorocyclobutyl)-2-methoxybenzonitrile] | < 100
15 | COc1c(C#N)ccc(C2CC(F)(F)C2)c1C(=O)N1CC(c2ncc(C(F)(F)F)cc2F)C1 [Example 153, 4-(3,3-Difluorocyclobutyl)-3-{3-[3-fluoro-5-(trifluoromethyl)pyridin-2-yl]azetidine-1-carbonyl}-2-methoxybenzonitrile] | < 100
16 | COc1c(C#N)ccc(O[C@@H](C)C(F)(F)F)c1C(=O)N1CC(c2ccc(C3CCOCC3)cc2)C1 [Example 158, 2-Methoxy-3-{3-[4-(oxan-4-yl)phenyl]azetidine-1-carbonyl}-4-{[(2S)-1,1,1-trifluoropropan-2-yl]oxy}benzonitrile] | < 100
17 | COc1c(C#N)ccc(O[C@@H](C)C(F)(F)F)c1C(=O)N1CC(c2ccc(C3CCOCC3)cn2)C1 [Example 159, 2-Methoxy-3-{3-[5-(oxan-4-yl)pyridin-2-yl]azetidine-1-carbonyl}-4-{[(2S)-1,1,1-trifluoropropan-2-yl]oxy}benzonitrile] | < 100
18 | COc1c(C#N)ccc(O[C@@H](C)C(F)(F)F)c1C(=O)N1CC(c2ccc(C3CCOC(C)(C)C3)cc2)C1 (stereo partly drawn) [Example 160, 3-{3-[4-(2,2-Dimethyloxan-4-yl)phenyl]azetidine-1-carbonyl}-2-methoxy-4-{[(2S)-1,1,1-trifluoropropan-2-yl]oxy}benzonitrile] | < 100
19 | COc1c(C#N)ccc(O[C@H](C)C(F)(F)F)c1C(=O)N1CC(c2ccc(C3CCOCC3)cc2)C1 [Example 161, 2-Methoxy-3-{3-[4-(oxan-4-yl)phenyl]azetidine-1-carbonyl}-4-{[(2R)-1,1,1-trifluoropropan-2-yl]oxy}benzonitrile] | < 100
20 | COc1c(C#N)ccc(C2(F)CCC2)c1C(=O)N1CC(c2ccc(C3CCOCC3)cn2)C1 [Example 162, 4-(1-Fluorocyclobutyl)-2-methoxy-3-{3-[5-(oxan-4-yl)pyridin-2-yl]azetidine-1-carbonyl}benzonitrile] | 100 to 1000
21 | COc1c(C#N)ccc(O[C@@H](C)C(F)(F)F)c1C(=O)N1CC(c2ccc(C3CCOCC3)c(F)c2)C1 [Example 163, 3-{3-[3-Fluoro-4-(oxan-4-yl)phenyl]azetidine-1-carbonyl}-2-methoxy-4-{[(2S)-1,1,1-trifluoropropan-2-yl]oxy}benzonitrile] | < 100
22 | COc1c(S(C)(=O)=O)ccc(O[C@H](C)C(F)(F)F)c1C(=O)N1CC(c2ccc(C3CCOCC3)cc2)C1 [Example 164, 1-(3-Methanesulfonyl-2-methoxy-6-{[(2R)-1,1,1-trifluoropropan-2-yl]oxy}benzoyl)-3-[4-(oxan-4-yl)phenyl]azetidine] | < 100
23 | CCOc1ccc(C#N)c(OC)c1C(=O)N1CC(c2ccc(C3CCOCC3)cn2)C1 [Example 165, 4-Ethoxy-2-methoxy-3-{3-[5-(oxan-4-yl)pyridin-2-yl]azetidine-1-carbonyl}benzonitrile] | < 100
24 | COc1c(C#N)ccc(OC(C)C)c1C(=O)N1CC(c2ccc(C3CCOCC3)cn2)C1 [Example 166, 2-Methoxy-3-{3-[5-(oxan-4-yl)pyridin-2-yl]azetidine-1-carbonyl}-4-(propan-2-yloxy)benzonitrile] | 100 to 1000
25 | COc1c(S(C)(=O)=O)ccc(O[C@H](C)C(F)(F)F)c1C(=O)N1CC(c2ccc(C3CCC(F)(F)CC3)cc2)C1 [Example 167, 3-[4-(4,4-Difluorocyclohexyl)phenyl]-1-(3-methanesulfonyl-2-methoxy-6-{[(2R)-1,1,1-trifluoropropan-2-yl]oxy}benzoyl)azetidine] | < 100
26 | COc1c(S(C)(=O)=O)ccc(O[C@@H](C)C(F)(F)F)c1C(=O)N1CC(c2ccc(C3CCOCC3)cc2)C1 [Example 168, 1-(3-Methanesulfonyl-2-methoxy-6-{[(2S)-1,1,1-trifluoropropan-2-yl]oxy}benzoyl)-3-[4-(oxan-4-yl)phenyl]azetidine] | < 100
27 | C[C@H](Oc1ccc(C#N)c(Cl)c1C(=O)N1CC(c2ccc(C3CCOCC3)cn2)C1)C(F)(F)F [Example 169, 2-Chloro-3-{3-[5-(oxan-4-yl)pyridin-2-yl]azetidine-1-carbonyl}-4-{[(2S)-1,1,1-trifluoropropan-2-yl]oxy}benzonitrile] | < 100
28 | C[C@@H](Oc1ccc(C#N)c(Cl)c1C(=O)N1CC(c2ccc(C3CCOCC3)cn2)C1)C(F)(F)F [Example 170, 2-Chloro-3-{3-[5-(oxan-4-yl)pyridin-2-yl]azetidine-1-carbonyl}-4-{[(2R)-1,1,1-trifluoropropan-2-yl]oxy}benzonitrile] | < 100
